Results as given in publication PMC10672039, “Novel Ca-Chelating Peptides from Protein Hydrolysate of Antarctic Krill (Euphausia superba): Preparation, Characterization, and Calcium Absorption Efficiency in Caco-2 Cell Monolayer Model” (Marine Drugs, 2023).
Peptide text beside a SMILES is read from it.

Columns and labels:
[1] = system: Caco-2 cells; experiment: Cytotoxicity, MTT assay; assay type: cell-based, Human; conditions: 24 h treatment
Protocol: (§1) Caco-2 cells were obtained from the Shanghai Institute of Cell Biology (Shanghai, China) and cultured in EMEM with 10% fetal bovine serum, 1% antibiotic, and 1% nonessential amino acids in a humidified incubator at 37 °C with 5% CO2. The cell culture medium was replaced every two days with a new medium of equal volume. The Caco-2 cells were dispersed using trypsin-EDTA when they covered approximately 90% of the flask and were seeded on 6-well transwell culture plates with polyester membranes. The medium was replaced every other day with a new medium of equal volume. After being cultured for 21 days, the transepithelial electrical resistance (TEER) was determined to confirm the integrity of the Caco-2 cell monolayers. The Caco-2 cell monolayers were used for Ca transport experiments when the TEER exceeded 300 Ω·cm^2 [60, 66].
Cell cytotoxicity was determined using the MTT assay. […] Then, MTT solution (100 μL) was added per well and incubated for an additional 4 h. The MTT solution per well was replaced by an equal volume of DMSO solution to solubilize. Finally, the absorbance of the sample solution at 570 nm was measured.

[2] = system: Caco-2 cell monolayer; experiment: Ca transport across the Caco-2 cell monolayer; assay type: in vitro ADME, Human; conditions: Caco-2 monolayer, mean ± SD, n = 3
Protocol: as §1
The Ca transport in the Caco-2 cell monolayer model was analyzed using previous methods. After 21 days of incubation, the culture medium of Caco-2 cells was discarded from each well, and monolayers were immediately washed with HBSS buffer (without Ca and magnesium) two times. The Caco-2 cell monolayers were transferred to a new 6-well culture plate containing 2 mL of HBSS buffer, and 2 mL of HBSS buffer was also added to the apical side. After incubating for 30 min, the HBSS on the apical side was replaced with 2 mL of HBSS containing VERG-Ca chelate (200 μM) or Ca (150 μg/mL), and the HBSS on the basolateral side was replaced with an equal volume of fresh HBSS buffer. After incubation for 2 h, 1 mL of HBSS in the basolateral side was removed to determine Ca content at the designed time (30, 60,120, and 180 min). At the same time, fresh HBSS buffer (1 mL) was added to the basolateral side to maintain a constant volume. The content of Ca was determined by atomic absorption spectrometry using HNO3 and HClO4 as the oxidizers.
In the experiments on the effects of vitamin D3 and phytate on Ca absorption, dietary factors (vitamin D3 and phytate) were first premixed with VERG-Ca chelate or CaCl2, respectively, at a mass ratio of 1:1. […]

| SMILES | effect on viability of Caco-2 cells ([1]; 250 μM, vs control group (p < 0.05)) | effect on viability of Caco-2 cells ([1]; 50–200 μM, vs control group) | absorption amount of Ca with phytate ([2]; 180 min (stated for CaCl2; not restated for the chelate), premixed with phytate at mass ratio 1:1) [μg/mg protein] | quantity of Ca of transport / absorption amount of Ca ([2]; 180 min, apical to basolateral, HBSS, VERG-Ca chelate 200 μM or Ca 150 μg/mL, atomic absorption spectrometry) [μg/mg protein] | absorption amount of Ca with vitamin D3 ([2]; 180 min, premixed with vitamin D3 at mass ratio 1:1) [μg/mg protein] |
| --- | --- | --- | --- | --- | --- |
| CC(C)[C@H](N)C(=O)N[C@@H](CCC(=O)O)C(=O)N[C@@H](CCCNC(=N)N)C(=O)NCC(=O)O [ACP4, Val-Glu-Arg-Gly] (H-VERG-OH) | significantly decrease the viability | no significant effect on cell viability |  |  |  |
| [Ca+2].[Cl-].[Cl-] [CaCl2] |  |  | 2.02 ± 0.24 | 2.96 ± 0.28 | 5.14 ± 0.23 |
